Activity calls are given as the source filed them. No rule for the calls is given here.
Test system: CCRIS mutagenicity, Ames/micronucleus/aberration tests
Assay: CCRIS mutagenicity studies

`COc1cc(CNC(=O)CCCC/C=C/C(C)C)ccc1O` was tested, and the mutagenic call (Test System: AMES SALMONELLA TYPHIMURIUM, Strain/Indicator: TA1535, Metabolic Activation: NONE, Method: DIRECT PLATE) was “inactive; negative”, the mutagenic call (Test System: AMES SALMONELLA TYPHIMURIUM, Strain/Indicator: TA1535, Metabolic Activation: NONE, Method: PREINCUBATION) was “inactive; negative” and the mutagenic call (Test System: AMES SALMONELLA TYPHIMURIUM, Strain/Indicator: TA1535, Metabolic Activation: RAT LIVER S-9, AROCLOR 1254, Method: PREINCUBATION) was “inactive; negative”. The mutagenic call (Test System: AMES SALMONELLA TYPHIMURIUM, Strain/Indicator: TA1535, Metabolic Activation: RAT LIVER S-9, AROCLOR 1254, Method: STANDARD PLATE) was “inactive; negative”, the mutagenic call (Test System: AMES SALMONELLA TYPHIMURIUM, Strain/Indicator: TA1535, Metabolic Activation: RAT, LIVER, S-9, AROCLOR 1254, Method: DIRECT PLATE) was “inactive; negative” and the mutagenic call (Test System: AMES SALMONELLA TYPHIMURIUM, Strain/Indicator: TA1535, Metabolic Activation: RAT, LIVER, S-9, AROCLOR 1254, Method: PREINCUBATION) was “inactive; negative”. For the same compound, the mutagenic call (Test System: AMES SALMONELLA TYPHIMURIUM, Strain/Indicator: TA1537, Metabolic Activation: HAMSTER, LIVER, S-9, AROCLOR 1254, Method: STANDARD PLATE) was “inactive; negative”, the mutagenic call (Test System: AMES SALMONELLA TYPHIMURIUM, Strain/Indicator: TA1537, Metabolic Activation: NONE, Method: DIRECT PLATE) was “inactive; negative” and the mutagenic call (Test System: AMES SALMONELLA TYPHIMURIUM, Strain/Indicator: TA1537, Metabolic Activation: NONE, Method: PREINCUBATION) was “inactive; negative”. For the same compound, the mutagenic call (Test System: AMES SALMONELLA TYPHIMURIUM, Strain/Indicator: TA1537, Metabolic Activation: NONE, Method: STANDARD PLATE) was “inactive; negative”, the mutagenic call (Test System: AMES SALMONELLA TYPHIMURIUM, Strain/Indicator: TA1537, Metabolic Activation: RAT LIVER S-9, AROCLOR 1254, Method: PREINCUBATION) was “inactive; negative” and the mutagenic call (Test System: AMES SALMONELLA TYPHIMURIUM, Strain/Indicator: TA1537, Metabolic Activation: RAT LIVER S-9, AROCLOR 1254, Method: STANDARD PLATE) was “inactive; negative”. The mutagenic call (Test System: AMES SALMONELLA TYPHIMURIUM, Strain/Indicator: TA1537, Metabolic Activation: RAT, LIVER, S-9, AROCLOR 1254, Method: DIRECT PLATE) was “inactive; negative”, the mutagenic call (Test System: AMES SALMONELLA TYPHIMURIUM, Strain/Indicator: TA1537, Metabolic Activation: RAT, LIVER, S-9, AROCLOR 1254, Method: PREINCUBATION) was “inactive; negative” and the mutagenic call (Test System: AMES SALMONELLA TYPHIMURIUM, Strain/Indicator: TA1537, Metabolic Activation: RAT, LIVER, S-9, AROCLOR 1254, Method: STANDARD PLATE) was “inactive; negative”. The mutagenic call (Test System: AMES SALMONELLA TYPHIMURIUM, Strain/Indicator: TA1538, Metabolic Activation: HAMSTER, LIVER, S-9, AROCLOR 1254, Method: STANDARD PLATE) was “inactive; negative”, the mutagenic call (Test System: AMES SALMONELLA TYPHIMURIUM, Strain/Indicator: TA1538, Metabolic Activation: NONE, Method: STANDARD PLATE) was “inactive; negative” and the mutagenic call (Test System: AMES SALMONELLA TYPHIMURIUM, Strain/Indicator: TA1538, Metabolic Activation: RAT, LIVER, S-9, AROCLOR 1254, Method: STANDARD PLATE) was “inactive; negative”. For the same compound, the mutagenic call (Test System: CHINESE HAMSTER V-79, Strain/Indicator: V-79/8-AZAGUANINE, Metabolic Activation: NONE) was “inactive; negative”, the mutagenic call (Test System: CHINESE HAMSTER V-79, Strain/Indicator: V-79/8-AZAGUANINE, Metabolic Activation: RAT, LIVER, S-9, AROCLOR) was “inactive; negative” and the mutagenic call (Test System: E. COLI, Strain/Indicator: WP2UVRA, Metabolic Activation: NONE, Method: PREINCUBATION) was “inactive; negative”. The mutagenic call (Test System: E. COLI, Strain/Indicator: WP2UVRA, Metabolic Activation: NONE, Method: STANDARD PLATE) was “inactive; negative”, the mutagenic call (Test System: E. COLI, Strain/Indicator: WP2UVRA, Metabolic Activation: RAT LIVER S-9, AROCLOR 1254, Method: PREINCUBATION) was “inactive; negative” and the mutagenic call (Test System: E. COLI, Strain/Indicator: WP2UVRA, Metabolic Activation: RAT LIVER S-9, AROCLOR 1254, Method: STANDARD PLATE) was “inactive; negative”. For the same compound, the mutagenic call (Test System: E. COLI, Strain/Indicator: WP2UVRA, Metabolic Activation: RAT, LIVER, S-9, AROCLOR 1254, Method: DIRECT PLATE) was “inactive; negative”, the mutagenic call (Test System: E. COLI, Strain/Indicator: WP2UVRA, Metabolic Activation: RAT, LIVER, S-9, AROCLOR 1254, Method: PREINCUBATION) was “inactive; negative” and the mutagenic call (Test System: E.COLI, Strain/Indicator: WP2UVRA, Metabolic Activation: NONE, Method: DIRECT PLATE) was “inactive; negative”. For the same compound, the mutagenic call (Test System: MOUSE LYMPHOMA, Strain/Indicator: L5178Y (TK+/TK-), Metabolic Activation: RAT, LIVER, S-9, AROCLOR 1254, Method: SUSPENSION/PLATE) was “active; positive”, the mutagenic call (Test System: MOUSE LYMPHOMA, Strain/Indicator: L5178Y(TK+/-), Metabolic Activation: NONE, Method: SUSPENSION/PLATE (4 H EXPOSURE)) was “active; positive” and the mutagenic call (Test System: MOUSE LYMPHOMA, Strain/Indicator: L5178Y(TK+/-), Metabolic Activation: NONE, Method: SUSPENSION/PLATE (24 H EXPOSURE)) was “inactive; negative”. The mutagenic call (Test System: MOUSE LYMPHOMA, Strain/Indicator: L5178Y(TK+/-), Metabolic Activation: RAT LIVER S-9, AROCLOR 1254, Method: SUSPENSION/PLATE) was “active; positive”.
